Experimental findings from patent US20190282518A1 (Bryn Pharma, LLC, priority 2018, published 2019) are described below.

The test has as its system histamine induced nasal congestion. To be noted: 5% histamine aerosol, dogs.

Turning to `NCCc1c[nH]cn1` [Histamine], the “induction of nasal congestion” value is given as “induced congestion in all animals to varying degrees”.
